{"source": "patent US20050222264A1", "about": "“Anti-rhinovirus active agents” (UNIHART CORPORATION, priority 2002, published 2005)", "format_in_all_cases": "cell-based, Human Rhinoviruses", "details_in_all_cases": "count after 3 days", "key": {"Rhinovirus H Strain [1]": {"test_system": "Rhinovirus H Strain", "assay": "Plaques assay on cell mono-layers, Rhinovirus H strain, Ohio-HeLa", "procedure": "(§1) The activity of the above compounds was evaluated in a plaque inhibition assay carried out on mono-layers of kidney cells from Rhesus monkey and from WI38 and Ohio-HeLa human cells, suitable for the propagation of Rhinoviruses M and H strains respectively. In this assay, the addition to the culture medium of an agent able to impede the viral penetration in the cells reduces the formation of microplaques compared with an untreated control culture. Therefore, the effectiveness of the test compound can be determined by counting the microplaques in treated and non-treated cultures after exposure to the virus.\n(§2) • 1. prepare confluent kidney cell mono-layers from Rhesus monkeys and from human cell lines (WI 38, MRC-5 and Ohio-Hela cells) in 6.75 cm Ø Petri dishes; • 2. aspirate the growth medium; • 3. wash each dish with 10 ml of culture medium (serum-free growth medium), Earle's saline solution—lactoalbumine hydrolysate and incubate at 33° C. for 60′; • 4. aspirate the liquid; • 5. prepare serial 1:10 viral dilutions (Rhinovirus-strain M and Rhinovirus-strain H) in Earle's saline solution—lactoalbumine hydrolysate and inoculate each dish with 0.2 ml volumes of viral dilution. Each viral dilution is inoculated in duplicate. • 6. Prepare analogous serial viral dilutions (as in 5) in Earle's saline solution—lactoalbumine hydrolysate, added with the anti-viral test compound at the desired concentration. • 7. Prepare Earle's saline solution—lactoalbumine hydrolysate added with the test anti-viral compound at the desired concentration as the control (one control for each test compound). • 8. incubate the infected mono-layers at 33° C. for 60′, gently rocking the dishes at 15′ intervals in order to evenly distribute the inoculum; • 9. place the dishes on a flat surface; • 10. thoroughly add 10 ml of nutritive agar in Earle's saline solution—calf serum, equilibrated at 44° C., to each dish and allow to harden. […]"}, "Rhinovirus H Strain [2]": {"test_system": "Rhinovirus H Strain", "assay": "Plaques assay on cell mono-layers, Rhinovirus H strain, WI38", "procedure": "as §1\n• 1. prepare confluent kidney cell mono-layers from Rhesus monkeys and from human cell lines (WI 38, MRC-5 and Ohio-Hela cells) in 6.75 cm Ø Petri dishes; • 2. aspirate the growth medium; • 3. wash each dish with 10 ml of culture medium (serum-free growth medium), Earle's saline solution—lactoalbumine hydrolysate and incubate at 33° C. for 60′; • 4. aspirate the liquid; • 5. prepare serial 1:10 viral dilutions (Rhinovirus-strain M and Rhinovirus-strain H) in Earle's saline solution—lactoalbumine hydrolysate and inoculate each dish with 0.2 ml volumes of viral dilution. Each viral dilution is inoculated in duplicate. • 6. […]"}, "Rhinovirus M Strain": {"test_system": "Rhinovirus M Strain", "assay": "Plaques assay on cell mono-layers, Rhinovirus M strain, MKC-5", "procedure": "as §1, §2"}, "[3]": {"details": "dilution of inoculated virus 10^−3, same molar concentration of a 12.5 γ/ml xenaldial solution"}, "[4]": {"details": "dilution of inoculated virus 10^−4, same molar concentration of a 12.5 γ/ml xenaldial solution"}, "[5]": {"details": "dilution of inoculated virus 10^−5, same molar concentration of a 12.5 γ/ml xenaldial solution"}}}
{"compound": "CCOC(Nc1ccc(C(=O)O)cc1)C(=O)c1ccc(-c2ccccc2)cc1", "note": "(stereo not drawn) [Xenalamine, p-(α-ethoxy-p-phenyl-phenacylamino)-benzoic acid, reference compound]", "values": [{"measurement": "n° of plaques in 2 dishes", "setting": "Rhinovirus H Strain [1]; [3]", "result": 2}, {"measurement": "n° of plaques in 2 dishes", "setting": "Rhinovirus H Strain [1]; [4]", "result": 1}, {"measurement": "n° of plaques in 2 dishes", "setting": "Rhinovirus H Strain [1]; [5]", "result": 1}, {"measurement": "n° of plaques in 2 dishes", "setting": "Rhinovirus H Strain [2]; [3]", "result": 3}, {"measurement": "n° of plaques in 2 dishes", "setting": "Rhinovirus H Strain [2]; [4]", "result": 1}, {"measurement": "n° of plaques in 2 dishes", "setting": "Rhinovirus M Strain; [3]", "result": 4}, {"measurement": "n° of plaques in 2 dishes", "setting": "Rhinovirus M Strain; [4]", "result": 2}, {"measurement": "n° of plaques in 2 dishes", "setting": "Rhinovirus M Strain; [5]", "result": 1}]}
